The values that follow come from US20240099301A1, “Disinfecting and Sanitizing Composition, Method for Preparing the Composition and Use of Same” (SOCIEDAD QUÍMICA ECOLÓGICA SPA, priority 2021, published 2024).

The conditions of series [1]: room temperature; cited from earlier work.
Series [2] can be described thus: Comparison of products: stability. Format: physicochemical.
Series [3] has as its system people. The series can be described thus: Comparison of products: handling hazards (adverse effects), harm to people. More on the design: species or system human.
Series [4] in a line: Comparison of products: filmogenic properties. Format: physicochemical.
Series [5] in a line: Comparison of products: duration of disinfectant effectiveness.
A short description of series [6]: Comparison of products: compatibility with detergents. The series is classed as physicochemical.
A short description of series [7]: Comparison of products: corrosivity (pH). Format: physicochemical.
Series [8] concerns people. The series can be described thus: Comparison of products: application in the presence of people. Details: species or system human.

Consider `OO` [hydrogen peroxide], for which, in series [1], the “concentration with bactericidal activity” value is listed as 6% and the “concentration with bacteriostatic activity” value is listed as 3%.

`OCl` [Sodium hypochlorite]: the Stability result in series [2] is reported as “Not stable, chlorine solutions”. For the same compound, the “Handling hazards (adverse effects)” value in series [3] (contact with skin and eyes) is “Liquid chlorine causes severe burns”. Besides, the “Handling hazards (adverse effects)” value in series [3] (exposure to high concentrations) was “cause nausea and vomiting”. Further, the Filmogenic properties entry in series [4] is “No”. This compound registered a Duration of effectiveness in series [5] of 1 days. Moreover, the Compatibility with detergents result in series [6] is given as “Not compatible. Sodium hypochlorite”. Moreover, in series [7], the “Corrosivity: irritancy” value is listed as “irritant” and the “Corrosivity: pH” value is given as ~11. The “Application in the presence of people” value in series [8] was “No and ventilation recommended”.
